This is an account of results in patent US20220387602A1, “BIFUNCTIONAL DEGRADERS AND THEIR METHODS OF USE” (NOVARTIS AG, priority 2019, published 2022).

Assay [1] has as its target T1, CRBN (Homo sapiens, UniProt Q96SW2). Put plainly: CRBN displacement assay Format 1 (fluorescence polarization, BodipyFL-lenalidomide probe Compound HH). Format: binding. As for the experimental part: (§1) Compounds were tested in the following biochemical and cellular assays.
(§2) BodipyFL conjugated lenalidomide compound HH was used as a fluorescent probe. […] Protein and substrate were diluted in assay buffer.
All protein and probe containing solutions were handled in ‘Maxymum Recovery’ tubes (Axygen Scientific Inc., Union City, USA). […] For the plate measurements a PHERAstar reader (BMG Labtech, Offenburg, Germany) was used. The instrument was equipped with a specific optics module containing filters and dichoic mirrors for measuring the fluorescence polarization-type assay. With this module, the fluorescence of the Bodipy FL-based probe was excited at 485 nm and the emissions of the product were measured at 520 nm. The fluorescence in each well was excited by 10 flashes per measurement.
For the determination of AC50 values, the assays were performed at room temperature in 384-well plates with a total assay volume of 10.1 μL per well. The test compound was dissolved in 90% (v/v) DMSO/water. For the assays, 100 nL of the 90% (v/v) DMSO/water solution or compound solution were added per well, followed by the addition of 5 μL protein solution (protein in 1× assay buffer).
(§3) The final assay concentration of the protein was nominally 100 nM. After 45 minutes of pre-incubation at room temperature, the competition for binding was started by the addition of 5 μL probe solution (probe dissolved in assay buffer). The final concentration of the probes in the assays was 5 nM. After the addition of the probe solution, the final DMSO concentration in the assay was 0.9% (v/v). The effect of the probe on the pre-established compound-protein complex equilibrium was determined after 45 minutes (t=45 min). The AC50 value was calculated from the plot of percentage of protein saturation versus the test compound concentration by a logistics fit according to: y=A^2+(A^1−A^2)/(1+(x/AC50)^p), where y is the %-saturation value at the test compound concentration, x. A^1 is the lowest saturation value, i.e., 0%, and A^2 the maximum saturation value, i.e. 100%. The exponent, p, is the Hill coefficient.
A general note: In fluorescence polarisation assays a small probe gives low polarisation when free and higher when bound to something large.

Assay [2] deals with T1, CRBN. Put plainly: CRBN displacement assay Format 2a (fluorescence polarization, 1536-well, Envision reader). Format: binding. How it is done:
as §1, §2
The fluorescence of the Bodipy FL-based probe was excited at 480 nm and the emissions of the product were measured at 535 nm. The fluorescence in each well was excited by 30 flashes per measurement.
For the determination of AC50 values, assays were performed at room temperature in 1536-well plates with a total assay volume of 6.03 μL per well. The test compounds were dissolved and diluted in 100% DMSO. For the assays, 30 nL of DMSO or compound solution were added per well, followed by the addition of 3 μL protein solution (80 nM protein in 1× assay buffer).
as §3, with “nominally 40” for “nominally 100”, “of 3” for “of 5”, “solution (10 nM probe” for “solution (probe”, “the probe” for “the probes”, “was 0.5%” for “was 0.9%”

[3] abbreviates: concentration at which 50% of reference probe Compound HH is displaced, 100 nM protein, 5 nM probe, Table 4, read-out: CRBN AC50 [μM] Format 1.
The mark [4] stands for this setting: concentration at which 50% of reference probe Compound HH is displaced, 40 nM protein, 5 nM probe, read-out: CRBN AC50 [μM] Format 2a.

T1 sequence (Q96SW2 whole entry): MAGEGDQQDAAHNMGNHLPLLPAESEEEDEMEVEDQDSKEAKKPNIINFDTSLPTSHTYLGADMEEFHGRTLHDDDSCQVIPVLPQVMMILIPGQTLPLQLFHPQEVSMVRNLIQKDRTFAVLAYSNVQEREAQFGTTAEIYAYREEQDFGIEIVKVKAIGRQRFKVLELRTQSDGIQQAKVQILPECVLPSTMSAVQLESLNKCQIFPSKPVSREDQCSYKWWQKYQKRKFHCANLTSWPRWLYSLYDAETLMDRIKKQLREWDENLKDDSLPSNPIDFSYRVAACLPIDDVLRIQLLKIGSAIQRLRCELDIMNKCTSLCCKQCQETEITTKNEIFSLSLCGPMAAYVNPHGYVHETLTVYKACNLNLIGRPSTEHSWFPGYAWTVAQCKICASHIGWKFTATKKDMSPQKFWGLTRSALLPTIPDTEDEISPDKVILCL

A word on the AC50: it is the midpoint of the concentration-response curve, whichever way the signal moves. Consider `O=C(O)COc1ccc(N2CCC(=O)NC2=O)cc1` [ILB-14, 2-(4-(2,4-Dioxotetrahydropyrimidin-1(2H)-yl)phenoxy)acetic acid], for which the AC50 in assay [1] (setting [3]) was 13 µM; in assay [2] (setting [4]), 5.79 µM.

For `Cc1cc(OCC(=O)O)ccc1N1CCC(=O)NC1=O` [ILB-15], the AC50 was 7.37 µM in assay [1] (setting [3]) and 2.61 µM in assay [2] (setting [4]).

For `O=C(O)COc1cccc(N2CCC(=O)NC2=O)c1` [ILB-16, 2-(3-(2,4-Dioxotetrahydropyrimidin-1(2H)-yl)phenoxy)acetic acid], the AC50 in assay [1] (setting [3]) came out at 11.7 µM; in assay [2] (setting [4]), 7.34 µM.

On to `O=CCOc1cccc(N2CCC(=O)NC2=O)c1` [ILB-18, 2-(3-(2,4-Dioxotetrahydropyrimidin-1(2H)-yl)phenoxy)acetaldehyde], for which the AC50 stood at 11.2 µM in assay [1] (setting [3]) and 3.79 µM in assay [2] (setting [4]).

As for `Cc1ccc(OCC=O)cc1N1CCC(=O)NC1=O` [ILB-19, 2-(3-(2,4-dioxotetrahydropyrimidin-1(2H)-yl)-4-methylphenoxy)acetaldehyde], the AC50 in assay [1] (setting [3]) is 2.51 µM; in assay [2] (setting [4]), 0.8 µM.

For `Cc1ccc(OCC(=O)O)cc1N1CCC(=O)NC1=O` [ILB-20, 2-(3-(2,4-Dioxotetrahydropyrimidin-1(2H)-yl)-4-methylphenoxy)acetic acid], the AC50 in assay [1] (setting [3]) stood at 5.37 µM; in assay [2] (setting [4]) it was 2.01 µM.

`Cc1ccc(C(=O)O)cc1N1CCC(=O)NC1=O` [ILB-24, 3-(2,4-dioxotetrahydropyrimidin-1(2H)-yl)-4-methylbenzoic acid]: the AC50 in assay [1] (setting [3]) was 2.85 µM; in assay [2] (setting [4]), 0.68 µM.

On to `O=C1CCN(c2cc(C(=O)O)ccc2Cl)C(=O)N1` [ILB-25, 4-chloro-3-(2,4-dioxotetrahydropyrimidin-1(2H)-yl)benzoic acid], for which the AC50 in assay [1] (setting [3]) was 1.98 µM; in assay [2] (setting [4]), 0.48 µM.

`COc1ccc(C(=O)O)cc1N1CCC(=O)NC1=O` [ILB-26, 3-(2,4-dioxotetrahydropyrimidin-1(2H)-yl)-4-methoxybenzoic acid]: the concentration at half-maximal activity (AC50) in assay [1] (setting [3]) amounted to 2.92 µM; in assay [2] (setting [4]), 1.26 µM.

In the case of `O=C1CCN(c2cc(C(=O)O)ccc2F)C(=O)N1` [ILB-27, 3-(2,4-dioxotetrahydropyrimidin-1(2H)-yl)-4-fluorobenzoic acid], the AC50 in assay [1] (setting [3]) came out at 3.03 µM; in assay [2] (setting [4]) it was 0.74 µM.

For the compound `O=C1CCN(c2cccc(C(=O)O)c2)C(=O)N1` [ILB-28, 3-(2,4-dioxotetrahydropyrimidin-1(2H)-yl)benzoic acid], the half-maximal activity concentration (AC50) turned out to be 3.41 µM in assay [1] (setting [3]) and 1.3 µM in assay [2] (setting [4]).

Regarding `O=C1CCN(c2ccc(C(=O)O)cc2)C(=O)N1` [ILB-31], the AC50 in assay [1] (setting [3]) was found to be 9.64 µM; in assay [2] (setting [4]), 5.1 µM.

In the case of `C#Cc1cccc(N2CCC(=O)NC2=O)c1` [ILB-33, 1-(3-ethynylphenyl)dihydropyrimidine-2,4(1H,3H)-dione], the values for the AC50 in assay [1] (setting [3]) and in assay [2] (setting [4]) were 6.52 µM and 2.68 µM, respectively.

In the case of `C=CCOc1cccc(N2CCC(=O)NC2=O)c1` [ILB-34, 1-(3-(allyloxy)phenyl)dihydropyrimidine-2,4(1H,3H)-dione], the AC50 in assay [1] (setting [3]) was 3.65 µM; in assay [2] (setting [4]) it was 1.91 µM.

In the case of `O=C1CCN(c2c(F)cc(C#CC3CCNCC3)cc2F)C(=O)N1` [ILB-38, 1-(2,6-difluoro-4-(piperidin-4-ylethynyl)phenyl)dihydropyrimidine-2,4(1H,3H)-dione], the AC50 in assay [1] (setting [3]) is 8.44 µM; in assay [2] (setting [4]) it was 6.02 µM.

For the compound `O=C1CCN(c2ccc(C#CCN3CCOC4(CCNCC4)C3)cc2)C(=O)N1` [ILB-40, 1-(4-(3-(1-oxa-4,9-diazaspiro[5.5]undecan-4-yl)prop-1-yn-1-yl)phenyl)dihydropyrimidine-2,4(1H,3H)-dione], the AC50 is 12.3 µM in assay [1] (setting [3]) and 3.45 µM in assay [2] (setting [4]).

In the case of `CC(C)(C)OC(=O)NCC#Cc1cc(F)c(N2CCC(=O)NC2=O)c(F)c1` [ILB-43, tert-Butyl (3-(4-(2,4-dioxotetrahydropyrimidin-1(2H)-yl)-3,5-difluorophenyl)prop-2-yn-1-yl)carbamate], the half-maximal activity concentration (AC50) was 2.99 µM in assay [1] and 2.93 µM in assay [2].
